Source: patent US5840336A, “Two-phase matrix for sustained release drug delivery device” (Cygnus, Inc., priority 1995, dated 1998)

Columns and labels:
[1] = Solubility of the drug in pH 5.0 phosphate buffer receiver fluid; assay type: physicochemical
[2] = pH 6
[3] = system: D2; conditions: cited from earlier work
[4] = assay type: in vivo
Description: The effective dose for treating Parkinson's disease is estimated to be in the range of about 1 to 3 μg/kg/hr. Accordingly, for transdermal administration, the target flux of this drug (based on a 20 cm^2 delivery area) is estimated to be in the range of approximately 3-10 μg/cm^2 /hr.

Structure (SMILES)	solubility for the drug [1]	skin flux from liquid formulations [2]	selective D2 agonist [3]	target flux [4]	effective dose for treating Parkinson's disease ([4]; estimated) [µg/kg/h]
Cc1cccc(CN2CCN(C)C[C@@H](NC(=O)c3n[nH]c4ccccc34)C2)c1.Cl.Cl [(R)-(-)-N-(1-Methyl-4-(3-methylbenzyl)hexahydro-1H-1,4-diazepin-6-yl)-1H-indazole-3-carboxamide dihydrochloride]	reasonable solubility				
CCCN(CCc1cccs1)[C@H]1CCc2c(O)cccc2C1 [S(-)-2-(N-propyl-N-2-thienylethylamine)-5-hydroxytetralin]		at or above the effective range	selective D2 agonist	3-10 μg/cm^2 /hr	1 to 3
